Experimental data as given in patent US10435388B2, “Selective inhibitors of clinically important mutants of the EGFR tyrosine kinase” (CS PHARMATECH LIMITED, priority 2016, dated 2019).
Like-named read-outs stand apart in the source and are kept apart here.

Columns and labels:
[1] = system: p-EGFR in PC9 cells (Exon 19 deletion EGFR); assay: Exon19 deletion EGFR (activating single mutant) PC-9 cellular autophosphorylation assay; type: cell-based, human; details: 2 h treatment, ELISA
Protocol: (§1) Cellular EGFR Autophosphorylation Assays.
The human lung cell line PC9 (Exon 19 deletion EGFR) is obtained from the American type Culture Collection. […] Cells are grown in a humidified incubator at 37° C. with 5% CO2, Assays to measure cellular phosphorylation of endogenous p-EGFR in cell Iysates are carried out according to the protocol described in the R&D Systems DuoSet IC Human Phospho-EGF R ELISA (R&D Systems catalogue number #DYCI095). 40 μL of cells are seeded (10000 cells/well) in growth medium in Corning black, clear-bottomed 384-well plates and incubated at 37° C., with 5%0/CO2 overnight. […] Plates are incubated for a further 2 h, then following aspiration of medium, 40 μL×lysis buffer is added to each well. Greiner black high bind 384 well plates are coated with capture antibody and then blocked with 3% BSA. Following removal of block, 15 μL of lysate are transferred to the Greiner black high bind 384 well plates and incubated for 2 hours. Following aspiration and washing of the plates with PBS, 20 μL of detection antibody are added and incubated for 2 hours. […] The data obtained with each compound are exported into a suitable software package (such as Origin) to perform curve fitting analysis.

[2] = system: p-EGFR in A431 cells (wild type EGFR, EGF stimulated); assay: Wild type EGFR A431 autophosphorylation inhibition assay (ELISA); type: cell-based, human; details: 2 h treatment, EGF stimulation 10 min
Protocol: as §1
Wild Type EGFR A431 Autophosphorylation Inhibition Assay (ELISA).
After 2 hour treatment with test compounds, add 4.5 μL of EGF (1 μg/mL) into each well and stimulate for 10 min. The rest of the procedure was processed in the same manner as described above for H1975 cells.

H1975 cells (DM) = assay: H1975 inhibition assay (cell proliferation), Method B; type: cell-based; details: cellular proliferation, several runs
PC9 cells (SM) = assay: PC-9 growth inhibition assay (cell proliferation), Method B; type: cell-based, human; details: cellular proliferation, several runs
[3] = system: p-EGFR in H1975 cells (L858R/T790M double mutant EGFR)
Protocol: H1975 cells were cryopreserved in liquid nitrogen. […] Remove the vial from liquid nitrogen and thaw rapidly by placing at 37° C. in a water bath with gentle agitation for 1-2 minutes and then decontaminated by wiping with 70% ethanol before opening in a Class II biological safety cabinet. Transfer the vial contents drop-wise into 10 mL of cell culture medium in a sterile 15 mL conical tube. Then centrifuged the tube at 200× g for 5 minutes and aspirate the supernatant. Re-suspend the cell pellet with 1 mL of fresh cell culture medium and transfer it in to the T75 flask containing cell culture medium.
To passage H1975 cells, firstly, the adherent cells were rinsed with Trypsin/EDTA. Then add Trypsin/EDTA (3 mL for a T75 flask) into the flask and swirl to ensure the cells coated with trypsin evenly. Then incubate the flasks at 37° C. until the cells detach. Add equal volume of cell culture medium to stop the reaction. Collect the detached cells and centrifuged at 200× g for 5 minutes followed by re-suspended in fresh culture medium. Then, the cells were transferred into a new T75 flask containing cell culture medium. Cells were sub-cultured three times per week at a ratio of 1:4 in culture medium.
Harvest cells from flask into cell culture medium and the cell numbers counted using Automated Cell Counter (Thermo Fisher Scientific, Countess™). Dilute the cells into 250,000 cells/mL with culture medium and add 40 μL of cell suspension into each well of 384-well cell culture plate as designated. The final concentration was 10,000 cells/well. The plates were covered with lid and placed in 37° C. 5% CO2 incubator overnight for cell attachment.
On the second day, test compounds were dissolved in DMSO at 10 mM. […] The same volume of DMSO was adopted as high control.
Place the plate back to 37° C. 5% CO2 incubator for 2 hours. Replace the medium of each well with ice-cold HBSS. Then remove the HBSS, add 30 μL cell lysis buffer into each well and shake the plates for 30 mins on a plate shaker. Centrifuge for 5 min at 1,000 rpm to remove bubbles and transfer 25 uL of the lysate supernatant for p-EGFR assay by using a commercial ELISA kit (R&D, DYC1095B-5).
For estimation of IC50, the absorption readout are transformed to % relative activity by applying the following equation
[formula] The IC50 was then calculated by fitting in XLFit (IDBS, Guildford, Surrey) to a four parameters logistic curve.

A431 cells (WT) = assay: A431 inhibition assay (cell proliferation), Method B; type: cell-based, human; details: cellular proliferation, several runs
Protocol: Cell Proliferation Assays—Method B
A431 Inhibition Assay, (Cell Proliferation).
The rest procedure was conducted in the same manner as described above for H1975 cells.

INSR = target: T1, INSR (Homo sapiens, UniProt P06213); assay: INSR inhibition assay (Caliper EZ Reader); type: biochemical; details: enzyme assay
T1 construct: purchased CARNA BIOSCIENCE 08-142
T1 sequence (P06213 989-1382 limits assumed): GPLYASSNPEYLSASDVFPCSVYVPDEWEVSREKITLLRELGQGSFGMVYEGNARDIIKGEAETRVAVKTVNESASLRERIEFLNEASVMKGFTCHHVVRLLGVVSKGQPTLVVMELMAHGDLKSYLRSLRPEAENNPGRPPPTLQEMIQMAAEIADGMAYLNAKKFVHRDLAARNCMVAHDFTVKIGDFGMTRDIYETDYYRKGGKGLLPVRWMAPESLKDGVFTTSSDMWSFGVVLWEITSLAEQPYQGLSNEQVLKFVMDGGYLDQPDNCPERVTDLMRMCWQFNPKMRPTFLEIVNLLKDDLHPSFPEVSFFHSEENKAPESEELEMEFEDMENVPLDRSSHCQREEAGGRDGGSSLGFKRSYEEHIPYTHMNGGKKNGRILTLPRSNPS
Protocol: (§2) Test compound was dissolved in DMSO at 30 mM. […] 20 nL of these compounds DMSO dilutes were dispensed into a new 384-well assay plate by Echo 550. […] 15 uL of kinase assay buffer containing INSR protein and substrate was transferred to assay plate and incubate at RT for 30 minutes. Kinase assay buffer supplemented with substrate peptides was employed as low control to monitor the background. 40 LM ATP was prepared in kinase assay buffer containing and 5 μL of ATP solution was added to each well to start the reaction. The assay plate was incubated at 25° C. for 180 minutes and the reaction was stopped by adding 40 μL of 0.5 M EDTA.
The result is analyzed in the same manner of […].

IGF-1R = target: T2, IGF-1R (Homo sapiens, UniProt P08069); assay: IGF-1R inhibition assay (Caliper EZ Reader); type: biochemical; details: enzyme assay
T2 construct: purchased CARNA BIOSCIENCE 08-141
T2 sequence (P08069 959-1367 limits assumed): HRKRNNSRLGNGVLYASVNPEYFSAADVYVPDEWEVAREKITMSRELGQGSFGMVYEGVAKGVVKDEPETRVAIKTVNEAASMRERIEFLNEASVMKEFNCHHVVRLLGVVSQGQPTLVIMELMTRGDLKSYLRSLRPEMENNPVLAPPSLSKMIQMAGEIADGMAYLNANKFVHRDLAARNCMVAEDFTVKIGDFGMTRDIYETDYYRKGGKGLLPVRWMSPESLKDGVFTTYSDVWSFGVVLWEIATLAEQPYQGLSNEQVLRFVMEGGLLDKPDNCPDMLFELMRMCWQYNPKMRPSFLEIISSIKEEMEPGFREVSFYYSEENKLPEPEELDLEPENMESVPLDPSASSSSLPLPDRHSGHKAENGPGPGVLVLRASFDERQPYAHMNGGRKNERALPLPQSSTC
Protocol: as §2, with “IGF-1R” for “INSR”, “μM” for “LM”
Phosphorylated fluorescent-tagged peptides were differentiated from non-phosphorylated peptides by separating using Caliper EZ Reader II and the detection was directly converted to conversion ratio.

[4] = Homo sapiens, A-431, cellular EGFR autophosphorylation
[5] = Homo sapiens, NCI-H1975, 2 h, read-out: H1975 IC50 (nM), cellular EGFR autophosphorylation, 2 h treatment, ELISA
[6] = cellular EGFR autophosphorylation
[7] = read-out: H1975 IC50, cellular EGFR autophosphorylation, 2 h treatment, ELISA

SMILES | IC50 ([1]; Homo sapiens, PC-9, 2 h) [µM] | IC50 [2, 4] [µM] | IC50 (H1975 cells (DM); Homo sapiens, NCI-H1975, 72 h) [µM] | IC50 (PC9 cells (SM); Homo sapiens, PC-9, 72 h) [µM] | IC50 [3, 5] [nM] | IC50 (A431 cells (WT); Homo sapiens, A-431, 72 h) [µM] | IC50 [1] [µM] | IC50 [2, 6] [µM] | IC50 (H1975 cells (DM); 72 h) [µM] | IC50 (PC9 cells (SM); 72 h) [µM] | IC50 [3, 7] [nM] | IC50 (A431 cells (WT); 72 h) [µM] | IC50 (INSR) [nM] | IC50 (IGF-1R) [nM]
C=CC(=O)N1CC[C@@H](Oc2nc(Nc3ccc(N4CCC(N5CCN(C)CC5)CC4)cc3)c(C(N)=O)nc2CC)C1 [ASP8273] | 0.0373 | 0.218 | 0.0121 | 0.0159 | 7.8 | 0.675 | – | – | – | – | – | – | – | –
Cc1cc(C(=O)Nc2nc3cccc(Cl)c3n2[C@@H]2CCCCN(C(=O)/C=C/CN(C)C)C2)ccn1 [EGF 816] | – | – | – | – | – | – | 0.0254 | 0.276 | 0.0779 | 0.0673 | 43.7 | 2.85 | – | –
C=CC(=O)Nc1cc(Nc2nccc(-c3c[nH]c4c(OC)nccc34)n2)c(OC)cc1N(C)CCN(C)C [Example 23, N-(2-((2-(Dimethylamino)ethyl)(methyl)amino)-4-methoxy-5-((4-(7-methoxy-1H-pyrrolo[2,3-c]pyridin-3-yl)pyrimidin-2-yl)amino)phenyl) acrylamide] | 0.00137 | 0.0261 | 0.00246 | 0.00382 | 1.15 | – | – | – | 0.00263 | 0.00338 | – | – | 325 | 271
C=CC(=O)Nc1cc(Nc2nccc(-c3cnc(NC)c(C(C)=O)c3)n2)c(OC)cc1N(C)CCN(C)C [Example 27, N-(5-((4-(5-Acetyl-6-(methylamino)pyridin-3-yl)pyrimidin-2-yl)amino)-2-((2-(dimethylamino)ethyl)(methyl)amino)-4-methoxyphenyl) acrylamide] | 0.0178 | 0.2 | 0.00992 | 0.0134 | 6.78 | 1.62 | – | – | – | – | – | – | 13200 | 4820
C=CC(=O)Nc1cc(Nc2nccc(-n3cc(C(C)=O)c4ccccc43)n2)c(OC)cc1N(C)CCN(C)C [Example 31, N-(5-((4-(3-Acetyl-1H-indol-1-yl)pyrimidin-2-yl)amino)-2-((2-(dimethylamino)ethyl)(methyl)amino)-4-methoxyphenyl) acrylamide] | 0.0137 | 0.161 | 0.0139 | 0.00854 | 7.64 | 1.07 | – | – | 0.0116 | 0.00839 | – | 0.942 | 814 | 765
C=CC(=O)Nc1cc(Nc2nccc(-n3nc(NCC)c4ccccc43)n2)c(OC)cc1N(C)CCN(C)C [Example 41] | 0.00626 | 0.137 | 0.00923 | 0.00752 | 11.9 | 0.295 | – | – | – | – | – | – | 1270 | 1420
C=CC(=O)Nc1cc(Nc2nccc(-n3nc(NC(C)C)c4ccccc43)n2)c(OC)cc1N(C)CCN(C)C [Example 43] | 0.0103 | 0.0734 | 0.00396 | 0.0033 | 10.2 | 0.218 | – | – | – | – | – | – | – | –
C=CC(=O)Nc1cc(Nc2nccc(-n3nc(C(C)(C)O)c4ccccc43)n2)c(OC)cc1N(C)CCN(C)C [Example 45] | 0.0106 | 0.0762 | 0.00261 | 0.0044 | 3.83 | 0.461 | – | – | – | – | – | – | 1020 | 1270
C=CC(=O)Nc1cc(Nc2nccc(-n3nc(N(C)C)c4ncccc43)n2)c(OC)cc1N(C)CCN(C)C [Example 55, N-(5-(4-(3-(Dimethylamino)-1H-pyrazolo[4,3-b]pyridin-1-yl)pyrimidin-2-ylamino)-2-(N-(2-(dimethylamino)ethyl)-N-methylamino)-4-methoxyphenyl) acrylamide] | 0.0155 | 0.106 | 0.00393 | 0.00909 | 4.07 | 2.8 | – | – | – | – | – | – | 1200 | 1300
C=CC(=O)Nc1cc(Nc2nccc(-n3nc(NC)c4ncccc43)n2)c(OC)cc1N(C)CCN(C)C [Example 56, N-(5-(4-(3-(Methylamino)-1H-pyrazolo[4,3-b]pyridin-1-yl)pyrimidin-2-ylamino)-2-(N-(2-(dimethylamino)ethyl)-N-methylamino)-4-methoxyphenyl) acrylamide] | 0.00404 | 0.0799 | 0.00277 | 0.00166 | 6.28 | 0.511 | – | – | – | – | – | – | 433 | 637
C=CC(=O)Nc1cc(Nc2nccc(-c3cnc(OC)c4c3ccn4C)n2)c(OC)cc1N(C)CCN(C)C [Example 57, N-(5-(4-(7-Methoxy-1N-methyl-1H-pyrrolo[2,3-c]pyridin-4-yl)pyrimidin-2-ylamino)-2-(N-(2-(dimethylamino)ethyl)-N-methylamino)-4-methoxyphenyl) acrylamide] | 0.014 | 0.134 | 0.0051 | 0.00363 | 8.5 | 0.267 | – | – | – | – | – | – | 290 | 207
C=CC(=O)Nc1cc(Nc2nccc(-c3cc(C#N)c4[nH]cc(C)c4c3)n2)c(OC)cc1N(C)CCN(C)C [Example 67, N-(5-(4-(7-Cyano-3-methyl-1H-indol-5-yl)pyrimidin-2-ylamino)-2-((2-(dimethylamino)ethyl)(methyl)amino)-4-methoxyphenyl) acrylamide] | 0.00476 | 0.11 | 0.00105 | 0.00207 | 1.06 | 0.506 | – | – | – | – | – | – | 403 | 243
C=CC(=O)N[C@@H]1CN(c2nc(Nc3cn(C)nc3OC)c3ncn(C)c3n2)C[C@H]1F [PF-06747775] | – | – | – | – | – | – | 0.00749 | 0.0782 | 0.0278 | 0.0071 | 8 | 0.657 | – | –
